What was measured:
Experiment in all cases: in vitro antibacterial evaluation, MIC by broth dilution
Type in all cases: cell-based
Streptococcus sp. = conditions: broth dilution, 18 hours at 35° C.
Experimental: (§1) Methods for in vitro Antibacterial Evaluation (Table 1)
(§2) The minimum inhibitory concentration (MIC), the lowest concentration of the antibiotic which inhibits growth of the test organism, is determined by the broth dilution method using Muller-Hinton II […] (Baltimore Biological Laboratories) following the recommendations of the National Committee for Clinical Laboratory Standards [Methods for dilution antimicrobial susceptibility tests for bacteria that grow aerobically, approved standard M7-A2, National Committee for Clinical Laboratory Standards, Villanova, Pa.].
(§3) An inoculum level of 5×10^5 CFU/mL, and a range of antibiotic concentrations (64-0.06 μg/mL) is used. […] The test organisms include a spectrum of Gram-positive bacteria comprised of Staphylococcus sp., Streptococcus sp. and Enterococcus sp. These organisms include recent clinical isolates that are resistant to methicillin, penicillin and/or vancomycin.

Enterococcus sp. = conditions: broth dilution, 18 hours at 35° C.
Experimental: as §1, §2, §3

Staphylococcus sp. = conditions: broth dilution, 18 hours at 35° C.; for MIC Staphylococcus aureus (ATCC 29213): strain ATCC 29213; for MIC Staphylococcus aureus (GC 1131): strain GC 1131; for MIC Staphylococcus aureus (GC 3051): strain GC 3051; for MIC Staphylococcus aureus (GC 3053): strain GC 3053; for MIC Staphylococcus aureus (GC 4541): strain GC 4541; for MIC Staphylococcus aureus (GC 4542): strain GC 4542; for MIC Staphylococcus aureus (GC 4544): strain GC 4544; for MIC Staphylococcus aureus (GC 4545): strain GC 4545
Experimental: as §1, §2, §3

Escherichia coli = conditions: 18 hours at 35° C.

CC(c1ccccc1)C1NC(=O)CNC(=O)C(CO)NC(=O)C(C(O)C2CNC(=N)N2C2OC(CO)C(O)C(O)C2O)NC(=O)C(C(O)C2CNC(=N)N2)NC(=O)C(Cc2ccc(OC3OC(CO)C(OC4OC5COC(C)(c6ccc(F)cc6)OC5C(O)C4O)C(O)C3O)cc2)NC1=O (stereo not drawn) [Example 216]
2 µg/mL: MIC Staphylococcus aureus (ATCC 29213) (Staphylococcus sp.) | MIC Staphylococcus aureus (GC 1131) (Staphylococcus sp.) | MIC Staphylococcus aureus (GC 3051) (Staphylococcus sp.) | MIC Staphylococcus aureus (GC 3053) (Staphylococcus sp.) | MIC Staphylococcus aureus-SMITH (GC 4543) (Staphylococcus sp.; strain GC 4543) | MIC Staphylococcus aureus (GC 4544) (Staphylococcus sp.) | MIC Coagulase Negative Staphylococcus (GC 4547) (Staphylococcus sp.; strain GC 4547) | MIC Coagulase Negative Staphylococcus (GC 4551) (Staphylococcus sp.; strain GC 4551) | MIC Escherichia coli (GC 4560) (Escherichia coli)
32 µg/mL: MIC Escherichia coli (ATCC 25922) (Escherichia coli)
1 µg/mL: MIC Staphylococcus aureus (GC 4541) (Staphylococcus sp.) | MIC Staphylococcus aureus (GC 4542) (Staphylococcus sp.) | MIC Staphylococcus aureus (GC 4545) (Staphylococcus sp.) | MIC Staphylococcus haemolyticus (GC 4546) (Staphylococcus sp.; strain GC 4546) | MIC Coagulase Negative Staphylococcus (GC 4548) (Staphylococcus sp.; strain GC 4548) | MIC Coagulase Negative Staphylococcus (GC 4549) (Staphylococcus sp.; strain GC 4549) | MIC Coagulase Negative Staphylococcus (GC 6257) (Staphylococcus sp.; strain GC 6257)
<0.06 µg/mL: MIC Streptococcus pneumoniae (GC 1894) (Streptococcus sp.) | MIC Streptococcus pneumoniae (GC 1894) (Streptococcus sp.; inoculum 5×10^5 CFU/mL, strain GC 1894)
16 µg/mL: MIC Escherichia coli (GC 4559) (Escherichia coli)
0.5 µg/mL: MIC Streptococcus agalactiae (GC 4564) (Streptococcus sp.) | MIC Streptococcus pyogenes (GC 4563) (Streptococcus sp.) | MIC Streptococcus pyogenes (GC 4563) (Streptococcus sp.; inoculum 5×10^5 CFU/mL, strain GC 4563) | MIC Streptococcus agalactiae (GC 4564) (Streptococcus sp.; inoculum 5×10^5 CFU/mL, strain GC 4564)
0.25 µg/mL: MIC Streptococcus pneumoniae (ATCC 6301) (Streptococcus sp.) | MIC Streptococcus pneumoniae (GC 4565) (Streptococcus sp.) | MIC Streptococcus pneumoniae (ATCC 6301) (Streptococcus sp.; inoculum 5×10^5 CFU/mL, strain ATCC 6301) | MIC Streptococcus pneumoniae (GC 4565) (Streptococcus sp.; inoculum 5×10^5 CFU/mL, strain GC 4565)
4 µg/mL: MIC Enterococcus avium (GC 4558) (Enterococcus sp.) | MIC Enterococcus faecalis (ATCC 29212) (Enterococcus sp.) | MIC Enterococcus faecalis (GC 2242) (Enterococcus sp.) | MIC Enterococcus faecalis (GC 2691) (Enterococcus sp.) | MIC Enterococcus faecalis (GC 3059) (Enterococcus sp.) | MIC Enterococcus faecalis (GC 4552) (Enterococcus sp.) | MIC Enterococcus faecalis (GC 4553) (Enterococcus sp.) | MIC Enterococcus faecalis (GC 4554) (Enterococcus sp.) | MIC Enterococcus faecalis (GC 6189) (Enterococcus sp.) | MIC Enterococcus faecium (GC 2243) (Enterococcus sp.) | MIC Enterococcus faecium (GC 4556) (Enterococcus sp.) | MIC Enterococcus faecium (GC 4557) (Enterococcus sp.) | MIC Enterococcus faecalis (ATCC 29212) (Enterococcus sp.; inoculum 5×10^5 CFU/mL, strain ATCC 29212) | MIC Enterococcus faecalis (GC 2242) (Enterococcus sp.; inoculum 5×10^5 CFU/mL, strain GC 2242) | MIC Enterococcus faecium (GC 2243) (Enterococcus sp.; inoculum 5×10^5 CFU/mL, strain GC 2243) | MIC Enterococcus faecalis (GC 2691) (Enterococcus sp.; inoculum 5×10^5 CFU/mL, strain GC 2691) | MIC Enterococcus faecalis (GC 3059) (Enterococcus sp.; inoculum 5×10^5 CFU/mL, strain GC 3059) | MIC Enterococcus faecalis (GC 4552) (Enterococcus sp.; inoculum 5×10^5 CFU/mL, strain GC 4552) | MIC Enterococcus faecalis (GC 4553) (Enterococcus sp.; inoculum 5×10^5 CFU/mL, strain GC 4553) | MIC Enterococcus faecalis (GC 4554) (Enterococcus sp.; inoculum 5×10^5 CFU/mL, strain GC 4554) | MIC Enterococcus faecium (GC 4556) (Enterococcus sp.; inoculum 5×10^5 CFU/mL, strain GC 4556) | MIC Enterococcus faecium (GC 4557) (Enterococcus sp.; inoculum 5×10^5 CFU/mL, strain GC 4557) | MIC Enterococcus avium (GC 4558) (Enterococcus sp.; inoculum 5×10^5 CFU/mL, strain GC 4558) | MIC Enterococcus faecalis (GC 6189) (Enterococcus sp.; inoculum 5×10^5 CFU/mL, strain GC 6189)

Tri-N-[(phenylmethoxy)carbonyl]-cyclo[glycl-β-methylphenylalanyltyrosyl-3-(2-iminoimidazolidin-4-yl)seryl-3-(3-hexopyranosyl-2-iminoimidazolidin-4-yl)serylseryl] [Example 89]
4 µg/mL: MIC Streptococcus pneumoniae (GC 1894) (Streptococcus sp.) | MIC Streptococcus pneumoniae (GC 1894) (Streptococcus sp.; strain GC 1894)
32 µg/mL: MIC Streptococcus agalactiae (GC 4564) (Streptococcus sp.) | MIC Streptococcus pyogenes (GC 4563) (Streptococcus sp.) | MIC Streptococcus pyogenes (GC 4563) (Streptococcus sp.; strain GC 4563) | MIC Streptococcus agalactiae (GC 4564) (Streptococcus sp.; strain GC 4564) | MIC Enterococcus avium (GC 4558) (Enterococcus sp.; Enterococcus avium (GC 4558)) | MIC Enterococcus faecium (GC 4557) (Enterococcus sp.; Enterococcus faecium (GC 4557)) | MIC Enterococcus avium (GC 4558) (Enterococcus sp.) | MIC Enterococcus faecium (GC 4557) (Enterococcus sp.) | MIC Coagulase Negative Staphylococcus (GC 4547) (Staphylococcus sp.) | MIC Coagulase Negative Staphylococcus (GC 6257) (Staphylococcus sp.) | MIC Staphylococcus haemolyticus (GC 4546) (Staphylococcus sp.) | MIC Staphylococcus haemolyticus (GC 4546) (Staphylococcus sp.; strain GC 4546) | MIC Coagulase Negative Staphylococcus (GC 4547) (Staphylococcus sp.; strain GC 4547) | MIC Coagulase Negative Staphylococcus (GC 6257) (Staphylococcus sp.; strain GC 6257) | MIC Escherichia coli (GC 4560) (Escherichia coli)
16 µg/mL: MIC Streptococcus pneumoniae (ATCC 6301) (Streptococcus sp.) | MIC Streptococcus pneumoniae (ATCC 6301) (Streptococcus sp.; strain ATCC 6301)
>64 µg/mL: MIC Escherichia coli (ATCC 25922) (Escherichia coli) | MIC Escherichia coli (GC 4559) (Escherichia coli)
64 µg/mL: MIC Enterococcus faecalis (ATCC 29212) (Enterococcus sp.; Enterococcus faecalis (ATCC 29212)) | MIC Enterococcus faecalis (GC 4552) (Enterococcus sp.; Enterococcus faecalis (GC 4552)) | MIC Enterococcus faecalis (GC 4553) (Enterococcus sp.; Enterococcus faecalis (GC 4553)) | MIC Enterococcus faecalis (GC 4554) (Enterococcus sp.; Enterococcus faecalis (GC 4554)) | MIC Enterococcus faecalis (GC 6189) (Enterococcus sp.; Enterococcus faecalis (GC 6189)) | MIC Enterococcus faecium (GC 2243) (Enterococcus sp.; Enterococcus faecium (GC 2243)) | MIC Enterococcus faecium (GC 4556) (Enterococcus sp.; Enterococcus faecium (GC 4556)) | MIC Enterococcus faecalis (ATCC 29212) (Enterococcus sp.) | MIC Enterococcus faecalis (GC 2242) (Enterococcus sp.) | MIC Enterococcus faecalis (GC 2691) (Enterococcus sp.) | MIC Enterococcus faecalis (GC 3059) (Enterococcus sp.) | MIC Enterococcus faecalis (GC 4552) (Enterococcus sp.) | MIC Enterococcus faecalis (GC 4553) (Enterococcus sp.) | MIC Enterococcus faecalis (GC 4554) (Enterococcus sp.) | MIC Enterococcus faecalis (GC 6189) (Enterococcus sp.) | MIC Enterococcus faecium (GC 2243) (Enterococcus sp.) | MIC Enterococcus faecium (GC 4556) (Enterococcus sp.) | MIC Enterococcus faecalis (GC 2242) (Enterococcus sp.; strain GC 2242) | MIC Enterococcus faecalis (GC 2691) (Enterococcus sp.; strain GC 2691) | MIC Enterococcus faecalis (GC 3059) (Enterococcus sp.; strain GC 3059) | MIC Coagulase Negative Staphylococcus (GC 4548) (Staphylococcus sp.) | MIC Coagulase Negative Staphylococcus (GC 4549) (Staphylococcus sp.) | MIC Coagulase Negative Staphylococcus (GC 4551) (Staphylococcus sp.) | MIC Staphylococcus aureus-SMITH (GC 4543) (Staphylococcus sp.) | MIC Staphylococcus aureus (ATCC 29213) (Staphylococcus sp.) | MIC Staphylococcus aureus (GC 1131) (Staphylococcus sp.) | MIC Staphylococcus aureus (GC 3051) (Staphylococcus sp.) | MIC Staphylococcus aureus (GC 3053) (Staphylococcus sp.) | MIC Staphylococcus aureus (GC 4541) (Staphylococcus sp.) | MIC Staphylococcus aureus (GC 4542) (Staphylococcus sp.) | MIC Staphylococcus aureus-SMITH (GC 4543) (Staphylococcus sp.; strain GC 4543) | MIC Staphylococcus aureus (GC 4544) (Staphylococcus sp.) | MIC Staphylococcus aureus (GC 4545) (Staphylococcus sp.) | MIC Coagulase Negative Staphylococcus (GC 4548) (Staphylococcus sp.; strain GC 4548) | MIC Coagulase Negative Staphylococcus (GC 4549) (Staphylococcus sp.; strain GC 4549) | MIC Coagulase Negative Staphylococcus (GC 4551) (Staphylococcus sp.; strain GC 4551)
8 µg/mL: MIC Streptococcus pneumoniae (GC 4565) (Streptococcus sp.) | MIC Streptococcus pneumoniae (GC 4565) (Streptococcus sp.; strain GC 4565)

From US6914045B2, “Glycopeptide antibiotics” (Wyeth Holdings Corporation, priority 2001, dated 2005)
